Legend:
Assay in all cases: Bliss excess, mean over the matrix (fraction); higher = more synergy
[1] = tested on: NKM-1 (Acute Myeloid Leukemia)
In short: (§1)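 Cell lines grown in DMEM/F12 or RPMI with 10% FBS were plated in 1536-well plates and held 24 hours at 37°C, 5% CO2 before 72 hours of exposure to two-drug dose matrices, with DMSO typically at 0.2%. CellTiter-Glo 2.0 luminescence gave viability, which was converted to inhibition. Vehicle wells were set to 0 and blank wells to 1. Combination Emax is the second-highest inhibition in the matrix, and Bliss excess is the observed combination effect minus the expected EA + EB − EA·EB, where EA and EB are the single-agent effects.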

[2] = tested on: FLO-1 (Esophageal Adenocarcinoma)
In short: as §1

[3] = tested on: KYSE-70 (Esophageal Squamous Cell Carcinoma)
In short: as §1

[4] = tested on: NCI-H810 (Non-Small Cell Lung Carcinoma)
In short: as §1

[5] = tested on: LAMA-84 (Chronic Myelogenous Leukemia)
In short: as §1

[6] = tested on: HCC-44 (Lung Adenocarcinoma)
In short: as §1

CS(=O)(=O)CCNCc1ccc(-c2ccc3ncnc(Nc4ccc(OCc5cccc(F)c5)c(Cl)c4)c3c2)o1 [Lapatinib] + NC1(c2ccc(-c3nc4ccn5c(=O)[nH]nc5c4cc3-c3ccccc3)cc2)CCC1 [MK-2206] (first compound max 10 µM, 7x7, partner max 10 µM)
Bliss excess [1]: 0.0174
Bliss excess [2]: -0.0401
Bliss excess [3]: 0.0087
Bliss excess [4]: -0.0152
Bliss excess [5]: -0.046
Bliss excess [6]: 0.005
